This note sets out measurements from article PMC6032016, “Synthesis, biological evaluation, and molecular modelling studies of potent human neutrophil elastase (HNE) inhibitors” (Journal of Enzyme Inhibition and Medicinal Chemistry, 2018).

Where “and” joins values, the source holds several entries; their conditions need not be identical. Equal entries are not always repeated. Some results are limits rather than exact numbers.

Data set [1] concerns the target T1, HNE (human neutrophil elastase) (Homo sapiens, UniProt P08246).
T1 construct: purchased Calbiochem
T1 sequence (P08246 30-267): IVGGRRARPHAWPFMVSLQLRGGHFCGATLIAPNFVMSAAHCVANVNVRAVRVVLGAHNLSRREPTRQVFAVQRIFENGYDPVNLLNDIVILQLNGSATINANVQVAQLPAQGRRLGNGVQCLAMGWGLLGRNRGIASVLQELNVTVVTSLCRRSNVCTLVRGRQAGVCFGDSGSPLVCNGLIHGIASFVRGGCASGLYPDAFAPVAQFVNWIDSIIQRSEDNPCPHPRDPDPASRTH
The experiment in a line: HNE inhibition assay (fluorogenic substrate cleavage). The class given is biochemical. The settings on record: for HNE inhibitory activity, result in words: highest concentration tested 50 µM; for IC50: mean ± SD of three independent experiments, NA: no inhibitory activity at the highest concentration tested (50 µM).
Procedure: Compounds were dissolved in 100% DMSO at 5 mM stock concentrations. […] The HNE inhibition assay was performed in black flat-bottom 96-well microtiter plates. Briefly, a buffer solution containing 200 mM Tris–HCl, pH 7.5, 0.01% bovine serum albumin, and 0.05% Tween-20 and 20 mU/mL of HNE (Calbiochem) was added to wells containing different concentrations of each compound. The reaction was initiated by addition of 25 µM elastase substrate (N-methylsuccinyl-Ala-Ala-Pro-Val-7-amino-4-methylcoumarin, Calbiochem) in a final reaction volume of 100 µl/well. Kinetic measurements were obtained every 30 s for 10 min at 25 °C using a Fluoroskan Ascent FL fluorescence microplate reader (Thermo Electron, MA) with excitation and emission wavelengths set at 355 and 460 nm, respectively. For all compounds tested, the concentration of inhibitor that caused 50% inhibition of the enzymatic reaction (IC50) was calculated by plotting % inhibition versus logarithm of inhibitor concentration (at least six points). The data are presented as the mean values of at least three independent experiments with relative standard deviations of <15%.

The nature of data set [2]: Analysis of compound stability: spontaneous hydrolysis in aqueous buffer. The class given is physicochemical. As to conditions: 25 °C, 0.05 M phosphate buffer, pH 7.3; read-out: t1/2 for spontaneous hydrolysis (converted). The procedure: Spontaneous hydrolysis of selected derivatives was evaluated at 25 °C in 0.05 M phosphate buffer, pH 7.3. Kinetics of hydrolysis were monitored by measuring changes in the absorbance spectra over time using a SpectraMax Plus microplate spectrophotometer (Molecular Devices, Sunnyvale, CA). Absorbance (At) at the characteristic absorption maxima of each compound was measured at the indicated times until no further absorbance decreases occurred (A∞)[52]. Using these measurements, we created semilogarithmic plots of log(At–A∞) versus time, and k′ values were determined from the slopes of these plots. Half-conversion times were calculated using t1/2 = 0.693/k′, as described previously[36]^,[37].

The next data set has as its target T2, HNE (Homo sapiens, UniProt P08246).
T2 construct: purchased Calbiochem
T2 sequence (P08246 30-267): T1 sequence (P08246 30-267)
The experiment in a line: Reversibility of HNE inhibition over extended periods of time. The class given is biochemical. The settings on record: 8 µM compound. On the procedure: The inhibition was maximal for up to 60 min with compound 7e and >120 min for the other tested compounds (4a, 4b, and 7a). However, inhibition by the compounds was eventually reversed, and full recovery of HNE activity was observed by 4 h after treatment with 8 µM of the compound (e.g. see Figure 6).
Figure 6. […] HNE was incubated with the indicated compounds (8 µM), and kinetic curves monitoring substrate cleavage catalysed by HNE over time are shown. Representative curves are from two independent experiments.

`Cc1cccc(Cn2oc(=O)c(-c3ccccc3)c2C)c1` [Compound 2, 3-Methyl-2-(3-methylbenzyl)-4-phenylisoxazol-5(2H)-one]: the “HNE inhibitory activity, result in words” value in data set [1] is “completely inactive”. The term melting point denotes the temperature, or range, at which the solid turns liquid. Regarding `Cc1c(-c2ccccc2)c(=O)on1S(=O)(=O)c1ccc(O)cc1` [Compound 3a, 2-((4-Hydroxyphenyl)sulfonyl)-3-methyl-4-phenylisoxazol-5(2H)-one], the melting point lay in the range of 50 to 51 °C. Moreover, the “HNE inhibitory activity, result in words” value in data set [1] is “inactivity”. In general, IC50 refers to the concentration at which inhibition is half-maximal. Higher therefore signals weaker potency in that assay. On to `Cc1c(-c2ccccc2)c(=O)on1S(=O)(=O)c1ccc(OC(=O)C(C)(C)C)cc1` [Compound 3b, 4-((3-Methyl-5-oxo-4-phenylisoxazol-2(5H)-yl)sulfonyl)phenyl pivalate], for which inhibition in data set [1] was half-maximal at 59 ± 20 nM (IC50).

Consider `Cc1c(-c2ccccc2)c(=O)on1S(=O)(=O)c1ccc(NC(=O)C(C)(C)C)cc1` [Compound 3c, N-(4-((3-methyl-5-oxo-4-phenylisoxazol-2(5H)-yl)sulfonyl)phenyl)pivalamide], for which the “HNE inhibitory activity, result in words” value in data set [1] is “completely inactive”. As for `Cc1cccc(C(=O)n2oc(=O)c(-c3ccccc3)c2C)c1` [Compound 4a, 3-Methyl-2-(3-methylbenzoyl)-4-phenylisoxazol-5(2H)-one], the melting point was in the range of 85 to 88 °C. This compound returned an IC50 in data set [1] of 77 ± 27 nM. Further, in data set [2], the half-life was 4.1 h. The “time for which HNE inhibition was maximal” value on HNE was > 120 min.

In turn, `Cc1c(-c2ccccc2)c(=O)on1C(=O)C1CC1` [Compound 4b, 2-(Cyclopropanecarbonyl)-3-methyl-4-phenylisoxazol-5(2H)-one] registered a melting point of 83 to 86 °C. The same compound displayed a half-inhibitory concentration (IC50) in data set [1] of 59 ± 18 nM. Further, the half-life in data set [2] is 8.3 h. Besides, on HNE, the “time for which HNE inhibition was maximal” value was > 120 min.

On to `Cc1ccc(C(=O)n2oc(=O)c(-c3ccccc3)c2C)cc1` [Compound 4c, 3-Methyl-2-(4-methylbenzoyl)-4-phenylisoxazol-5(2H)-one], for which the melting point lay within 134 to 136 °C. In addition, in data set [1], the IC50 is 230 ± 34 nM. Turning to `Cc1ccccc1C(=O)n1oc(=O)c(-c2ccccc2)c1C` [Compound 4d, 3-Methyl-2-(2-methylbenzoyl)-4-phenylisoxazol-5(2H)-one], the melting point is 99 to 100 °C. The midpoint of inhibition in data set [1], the IC50, lay at 350 ± 36 nM. For `Cc1c(-c2ccccc2)c(=O)on1C(=O)c1cccc(C(F)(F)F)c1` [Compound 4e, 3-Methyl-4-phenyl-2-(3-(trifluoromethyl)benzoyl)isoxazol-5(2H)-one] the same measures were 96 to 97 °C and 200 ± 27 nM. `Cc1c(-c2ccccc2)c(=O)on1C(=O)c1cccc(S(C)(=O)=O)c1` [Compound 4f, 3-Methyl-2-(3-(methylsulfonyl)benzoyl)-4-phenylisoxazol-5(2H)-one] returned a melting point of 185 to 186 °C. Further, the IC50 in data set [1] turned out to be 29600 ± 7200 nM. Taken in the same sequence, the figures for `Cc1c(-c2ccccc2)c(=O)on1C(=O)c1cccc(C#N)c1` [Compound 4g, 3-(3-Methyl-5-oxo-4-phenyl-2,5-dihydroisoxazole-2-carbonyl)benzonitrile] were 118 to 119 °C and 6300 ± 1400 nM. In the case of `Cc1c(-c2ccccc2)c(=O)on1C(=O)c1ccc(C#N)cc1` [Compound 4h, 4-(3-Methyl-5-oxo-4-phenyl-2,5-dihydroisoxazole-2-carbonyl)benzonitrile], the melting point was 178 to 180 °C (dec.). For the same compound, the IC50 in data set [1] was found to be 11400 ± 1900 nM.

`Cc1c(-c2ccccc2)c(=O)on1C(=O)c1ccc(NC(=O)C(C)(C)C)cc1` [Compound 4i, N-(4-(3-methyl-5-oxo-4-phenyl-2,5-dihydroisoxazole-2-carbonyl)phenyl)pivalamide] registered a melting point of 132 to 134 °C. The same compound displayed an IC50 in data set [1] of 8500 ± 2100 nM. For `Cc1c(-c2ccccc2)c(=O)on1C(=O)c1ccc(OC(=O)C(C)(C)C)cc1` [Compound 4l, 4-(3-Methyl-5-oxo-4-phenyl-2,5-dihydroisoxazole-2-carbonyl)phenyl pivalate] the same measures were 130 to 132 °C and 480 ± 130 nM. For `Cc1cccc(C(=O)n2oc(=O)c(-c3ccccc3)c2-c2ccccc2)c1` [Compound 4m, 2-(3-Methylbenzoyl)-3,4-diphenylisoxazol-5(2H)-one] the same measures were 160 to 163 °C and 10100 ± 1300 nM. On to `O=C(C1CC1)n1oc(=O)c(-c2ccccc2)c1-c1ccccc1` [Compound 4n, 2-(Cyclopropanecarbonyl)-3,4-diphenylisoxazol-5(2H)-one], for which the melting point was in the range of 100 to 103 °C. For the same compound, the half-maximal inhibitory concentration (IC50) in data set [1] stood at 17200 ± 2300 nM. As for `Cc1cccc(C(=O)n2oc(=O)c(C)c2-c2ccccc2)c1` [Compound 4o, 4-Methyl-2-(3-methylbenzoyl)-3-phenylisoxazol-5(2H)-one], 13600 ± 2400 nM corresponded to half-maximal inhibition in data set [1] (IC50).

Turning to `Cc1c(-c2ccccc2)n(C(=O)C2CC2)oc1=O` [Compound 4p, 2-(Cyclopropanecarbonyl)-4-methyl-3-phenylisoxazol-5(2H)-one], in data set [1], the half-maximal inhibitory concentration (IC50) was found to be 1100 ± 140 nM. `Cc1cccc(C(=O)n2oc(=O)cc2-c2ccccc2)c1` [Compound 4q, 2-(3-Methylbenzoyl)-3-phenylisoxazol-5(2H)-one] registered an IC50 in data set [1] of 48700 ± 3300 nM. Compared with the last compound, the IC50 is about 44-fold higher.

Consider `O=C(C1CC1)n1oc(=O)cc1-c1ccccc1` [Compound 4r, 2-(Cyclopropanecarbonyl)-3-phenylisoxazol-5(2H)-one], for which the IC50 in data set [1] was determined as 12700 ± 2700 nM. Compared with the last compound, the IC50 is about 3.8-fold lower. Consider `Cc1cccc(C(=O)n2oc(=O)cc2-c2ccc([N+](=O)[O-])cc2)c1` [Compound 4s, 2-(3-Methylbenzoyl)-3-(4-nitrophenyl)isoxazol-5(2H)-one], for which the melting point is 177 to 180 °C (dec.). In addition, the “HNE inhibitory activity, result in words” value in data set [1] was “completely inactive”.

In the case of `O=C(C1CC1)n1oc(=O)cc1-c1ccc([N+](=O)[O-])cc1` [Compound 4t, 2-(Cyclopropanecarbonyl)-3-(4-nitrophenyl)isoxazol-5(2H)-one], the “HNE inhibitory activity, result in words” value in data set [1] was “completely inactive”.

As for `CC(=O)Nc1ccc(-c2cc(=O)on2C(=O)c2cccc(C)c2)cc1` [Compound 4u, N-(4-(2-(3-methylbenzoyl)-5-oxo-2,5-dihydroisoxazol-3-yl)phenyl)acetamide], in data set [1], the IC50 is 28600 ± 3300 nM. In data set [1], `Cc1ccc(-c2c(C)n(C(=O)c3cccc(C)c3)oc2=O)cc1` [Compound 7a, 3-Methyl-2-(3-methylbenzoyl)-4-(p-tolyl)isoxazol-5(2H)-one] had a half-maximal inhibitory concentration (IC50) of 20 ± 9 nM. Further, the half-life in data set [2] was 7.7 h. Moreover, the “time for which HNE inhibition was maximal” value at HNE is > 120 min. Compound `Cc1cccc(C(=O)n2oc(=O)c(-c3ccc(C#N)cc3)c2C)c1` [Compound 7b, 4-(3-Methyl-2-(3-methylbenzoyl)-5-oxo-2,5-dihydroisoxazol-4-yl)benzonitrile] yielded a melting point of 108 to 110 °C. In data set [1], this compound registered a half-inhibitory concentration (IC50) of 70 ± 20 nM. Moreover, the “time after which HNE inhibition was reversed” value on HNE is ~30 min.

`Cc1cccc(C(=O)n2oc(=O)c(-c3ccc([N+](=O)[O-])cc3)c2C)c1` [Compound 7c, 3-Methyl-2-(3-methylbenzoyl)-4-(4-nitrophenyl)isoxazol-5(2H)-one] had a melting point of 152 to 154 °C. It took 210 ± 40 nM to reach half-maximal inhibition in data set [1] (IC50). In the case of `Cc1ccc(-c2c(C)noc2OC(=O)c2cccc(C)c2)cc1` [Compound 8a, 3-Methyl-4-(p-tolyl)isoxazol-5-yl 3-methylbenzoate], in data set [1], the IC50 is 10000 nM and 10200 nM. Also, in data set [2], the half-life was 5.3 h. Compound `Cc1cccc(C(=O)Oc2onc(C)c2-c2ccc(C#N)cc2)c1` [Compound 8b, 4-(4-Cyanophenyl)-3-methylisoxazol-5-yl 3-methylbenzoate] gave a melting point of 98 to 100 °C. In data set [1], this compound showed an IC50 of 420 ± 130 nM. Consider `Cc1cccc(C(=O)Oc2onc(C)c2-c2ccc(NC(=O)C3CC3)cc2)c1` [Compound 8e, 4-(4-(Ciclopropanecarboxamido)phenyl)-3-methylisoxazol-5-yl3-me-thylbenzoate], for which the melting point lay within 80 to 82 °C. For the same compound, the concentration for half-maximal inhibition (IC50) in data set [1] was 620 ± 210 nM. In addition, in data set [2], the half-life was 5.6 h. In data set [1], `CCC(=O)n1oc(=O)c2ccccc21` [Compound 10a, 1-Propionylbenzo[c]isoxazol-3(1H)-one] came in with a 50% inhibitory concentration (IC50) of 25100 ± 3600 nM. Take `CCCCC(=O)n1oc(=O)c2ccccc21` [Compound 10b, 1-Pentanoylbenzo[c]isoxazol-3(1H)-one]: in data set [1], the “HNE inhibitory activity, result in words” value was “inactive”. As for `Cc1cccc(C(=O)n2oc(=O)c3ccccc32)c1` [Compound 10c, 1-(3-Methylbenzoyl)benzo[c]isoxazol-3(1H)-one], the melting point was in the range of 116 to 119 °C. Moreover, inhibition in data set [1] was half-maximal at 638 ± 121 nM (IC50).
